Reference: patent US6372690B1 (McGill University, priority 1998, dated 2002)
Entries after “also recorded” stand apart in the source; their conditions may differ.

Tests used:
[1] = test system: ragweed; experiment: Example 3: assay with other non-ionic surfactants, ragweed plots in waste area situation; type: in vivo
Method: This experiment was conducted to test another solution containing another non-ionic surfactant. The experiment was conducted on plots behind a beef barn complex, on ragweed of 6 to 10 inches in height, fully flowered, in a very hard and gravely soil, such as in a waste area situation. The experiment was conducted as a completely randomized design (CRD) with three replicates.
Each plot has a surface of one (1) m^2. The sprayer used was a small compressed air sprayer with 210 kPa pressure and a T-Jet™ 8002 nozzle. The plots were sprayed Sep. 3, 1996 at 10:00 a.m. under a bright sunshine and a temperature of 28° C. In all instances, the efficacy of the solution was evaluated 20-30 minutes, 2-4 hrs, 16-24 hrs, and 2-5 days after spraying. The efficacy of the solution was determined based on level of plant deterioration.
In this experiment, 14 different treatments were applied to the different plots (with three replicates/treatment).
Once it had been determined that a surfactant could possibly increase efficacy of the NaCl at the same time as reducing the spray volume needed, another non-ionic surfactant, namely Citowett™, was introduced into the trials. All surfactants were applied at the rates usually recommended in the Ontario Guide to Chemical Weed Control (OMAFRA, 1997).

[2] = test system: ragweed; experiment: General conclusions on ragweed control from the experiments; type: in vivo
[3] = test system: ragweed; experiment: Spraying of ragweed plants as described in the description and FIGS. 1-3; type: in vivo; details: 12% NaCl solution
[4] = test system: ragweed; experiment: Example 2: determination of an adequate volume sprayed, ragweed plots sprayed at 1000 l/ha; type: in vivo
Method: This experiment was conducted to determine if increasing the spray volume to the point where the plants were completely covered to the run-off stage would improve efficacy.
This experiment was conducted on plots within a fencerow of an agricultural field where ragweed plants had attained 12 to 20 inches in height, and were in full flower. The experiment was conducted as a completely randomized design (CRD) with three replicates.
Each plot has a surface of one (1) m^2. The sprayer used was a Hardi™ pack sprayer with Hardi™ nozzle and 200-220 kPa of pressure. The plots were sprayed Aug. 29, 1996 at 13:30 under a bright sunshine and a temperature of 29° C. The spray volume used was 1000 l/ha or 100 ml/m^2 plot.
In all instances, the efficacy of the solution was evaluated 30 minutes, 2-4 hrs, 16-24 hrs, and 2-5 days after spraying. The efficacy of the solution was determined based on level of plant deterioration.
In this experiment, 6 different treatments (having three replicates each) were subjected to the different plots.

[5] = test system: ragweed; experiment: Example 4: concentration of salt with or without surfactants, tall ragweed in cultivated field; type: in vivo; details: tall ragweed (40-60 inches)
Method: This experiment was conducted on plot of tall ragweed (40-60 inches), fully flowered, in a cultivated field situation. The experiment was conducted as a completely randomized design (CRD) with three replicates.
(§1) Each plot has a surface of four (4) m^2. The sprayer used was a Hardi™ pack sprayer with 200-220 kPa pressure and T-Jet™ 8002 nozzle. The plots were sprayed Sep. 6, 1996 at 09:00 a.m. under a bright sunshine and a temperature of 26° C. In all instances, the efficacy of the solution was evaluated 30 minutes, 2-4 hrs, 16-24 hrs, and 2-5 days after spraying. The efficacy of the solution was determined based on level of plant deterioration.
(§2) In this experiment, 8 different treatments were applied to the different plots (with three replicates/treatment).

[6] = test system: ragweed; experiment: Example 5: optimization of salt concentration with or without surfactants, cut ragweed in roadside situation; type: in vivo
Method: This experiment was conducted on plots having ragweed 4 to 6 inches tall, in flower, and which had been cut at least once, in a roadside situation. The experiment was conducted as a randomized complete block design (RCBD) with three replicates.
as §1, with “small compressed air” for “Hardi™ pack”, “210” for “200-220”, “13:30,” for “09:00 a.m.”, “29°” for “26°”
as §2
Only the 8% and 12% rates were considered in this experiment because it had been observed that there was no efficacy or economic benefit to using the 16% or 20% rates of NaCl. Both NaCl concentrations were applied alone or with each of the three surfactants.

[7] = test system: all types of vegetation; details: Frear, Chemistry of Pesticides 3rd ed. p. 401, 1955; cited from earlier work
[8] = test system: broad-leaved plantain; experiment: Selective control of broad-leaved plantain in turf (FIG. 4); type: in vivo; details: 12% NaCl solution; 24 hours following the application

Structure (SMILES) | efficacy compared with the NaCl solutions ([1]; 12% KNO3) | suitability as alternative to NaCl ([2]; KNO3 at the 12% rate) | efficacy compared with the 12% solution ([1]; 8% NaCl alone) | overall damage to the ragweed compared with the 12% solution ([1]; 16% NaCl) | overall damage to the ragweed compared with the 12% solution ([1]; 20% NaCl) | effect on ragweed plants (FIGS. 2 and 3) ([3]; 24 hours following spraying) | effect on ragweed plant (FIG. 1) ([3]; within 6 hours of applying) | activity at damaging the ragweed ([4]; 8% NaCl) | overall efficacy ([4]; 12% NaCl) | difference in effect between 12% and 16% solution ([4]; 16% NaCl versus 12% NaCl, any time except 30 minutes after application) | speed of wilting ([4]; 16% NaCl, 30 minutes after application) | reaction of ragweed to the sprays ([4]; NaCl at all three concentrations (8, 12, 16% W/V), 30 minutes after spraying) | ragweed control (general conclusion) ([2]; salt solutions, especially NaCl solutions) | control ([5]; 8% NaCl) | efficiency compared with higher concentrations ([5]; 12% NaCl without surfactant) | control of ragweed ([6]; 8% NaCl alone) | effect 30 minutes after application ([6]; 12% NaCl alone, 30 minutes) | effect 2 days after spraying ([6]; 12% NaCl alone, 2 days) | herbicidal effect and selectivity [7] | control of broad-leaved plantain in turf (FIG. 4) [8]
O=[N+]([O-])[O-].[K+] [KNO3, potassium nitrate, reference compound] | not as effective as any of the NaCl solutions | not a viable alternative to NaCl |  |  |  |  |  |  |  |  |  |  |  |  |  |  |  |  |  | 
[Cl-].[Na+] [NaCl, sodium chloride] |  |  | not as effective as the 12% solution | did not visibly improve overall damage to the ragweed | did not visibly improve overall damage to the ragweed | drooping of ragweed staminate flowers and desiccation of leaves; also recorded: desiccated | curling and wilting | there was activity but it did not seem to be as effective as the 12% concentration | sufficient | little difference | appeared to have wilted more quickly than those treated with 12% | the inflorescences were drooping | effective at ragweed control | slightly lower | as efficient as 16% or 20% | inferior control of ragweed compared with the 12% solution | drooping | complete necrosis | will kill all types of vegetation, without any selection | selective control
